# Test results as given in publication PMC9234961 (Journal of Medicinal Chemistry, 2022).
# What was measured:
# [1] = logD7.4 assay (Chrom log D method); assay type: physicochemical; conditions: reversed-phase HPLC on Phenomenex Luna C8 column, pH 7.4, read-out: Measured logD7.4
# Method in brief: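 Samples at 1mM in 10% DMSO/90% Trizma buffer (100mM Trizma in 75/25 methanol/water) injected onto a C8 column at 30°C under gradient elution at 2 mL/min. Retention calibrated against calibration and validation standards.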
# in vitro = in vitro ADME; conditions: pH 7.4, 10 µM, 16 h at 30 °C
# ADRA2A = target: T1, ADRA2A (Homo sapiens, UniProt P08913); assay: SAFETYScan GPCR cAMP, Antagonist; assay type: cell-based
# T1 construct: expressed in transfected cells
# T1 sequence (P08913 1-465): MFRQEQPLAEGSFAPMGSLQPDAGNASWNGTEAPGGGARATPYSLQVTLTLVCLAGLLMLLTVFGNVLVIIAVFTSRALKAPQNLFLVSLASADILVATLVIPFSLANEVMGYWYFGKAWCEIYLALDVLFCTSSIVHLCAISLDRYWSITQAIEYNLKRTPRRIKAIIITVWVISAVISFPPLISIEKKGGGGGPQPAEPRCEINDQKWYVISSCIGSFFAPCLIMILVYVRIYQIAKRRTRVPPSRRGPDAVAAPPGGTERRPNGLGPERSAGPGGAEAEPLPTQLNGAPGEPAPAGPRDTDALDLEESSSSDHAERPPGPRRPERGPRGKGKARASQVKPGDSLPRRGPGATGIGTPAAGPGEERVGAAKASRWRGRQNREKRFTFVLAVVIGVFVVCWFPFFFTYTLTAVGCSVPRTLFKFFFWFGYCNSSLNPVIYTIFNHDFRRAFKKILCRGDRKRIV
# Excerpt: (§1) Supplement jm1c02175_si_002.xlsx, sheet "SAFETYScan" | column: RC50 (uM); Max Response
# ADRB1 = target: T2, ADRB1 (Homo sapiens, UniProt P08588); assay: SAFETYScan GPCR cAMP, Antagonist; assay type: cell-based
# T2 construct: expressed in transfected cells
# Excerpt: as §1
# CNR1 = target: T3, CNR1 (Homo sapiens, UniProt P21554); assay: SAFETYScan GPCR cAMP, Antagonist; assay type: cell-based
# T3 construct: expressed in transfected cells
# Excerpt: as §1
# CNR2 = target: T4, CNR2 (Homo sapiens, UniProt P34972); assay: SAFETYScan GPCR cAMP, Antagonist; assay type: cell-based
# T4 construct: expressed in transfected cells
# Excerpt: as §1
# DRD1 = target: T5, DRD1 (Homo sapiens, UniProt P21728); assay: SAFETYScan GPCR cAMP, Antagonist; assay type: cell-based
# T5 construct: expressed in transfected cells
# T5 sequence (P21728 whole entry): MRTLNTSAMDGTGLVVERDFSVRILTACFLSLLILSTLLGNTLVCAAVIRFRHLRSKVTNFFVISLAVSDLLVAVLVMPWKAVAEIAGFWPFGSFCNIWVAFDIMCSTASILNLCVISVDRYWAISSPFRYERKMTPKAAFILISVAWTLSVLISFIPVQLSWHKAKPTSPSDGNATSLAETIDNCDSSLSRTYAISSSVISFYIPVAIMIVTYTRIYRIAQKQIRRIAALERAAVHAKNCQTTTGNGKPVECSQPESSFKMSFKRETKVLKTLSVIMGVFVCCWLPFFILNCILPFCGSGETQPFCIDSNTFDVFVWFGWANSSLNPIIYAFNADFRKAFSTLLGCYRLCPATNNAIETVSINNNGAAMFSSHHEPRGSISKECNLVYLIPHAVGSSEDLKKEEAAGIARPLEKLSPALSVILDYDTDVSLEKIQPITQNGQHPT
# Excerpt: as §1
# DRD2S = target: T6, DRD2S (Homo sapiens, UniProt P14416); assay: SAFETYScan GPCR cAMP, Antagonist; assay type: cell-based
# T6 construct: expressed in transfected cells
# Excerpt: as §1
# HRH2 = target: T7, HRH2 (Homo sapiens, UniProt P25021); assay: SAFETYScan GPCR cAMP, Antagonist; assay type: cell-based
# T7 construct: expressed in transfected cells
# T7 sequence (P25021 whole entry): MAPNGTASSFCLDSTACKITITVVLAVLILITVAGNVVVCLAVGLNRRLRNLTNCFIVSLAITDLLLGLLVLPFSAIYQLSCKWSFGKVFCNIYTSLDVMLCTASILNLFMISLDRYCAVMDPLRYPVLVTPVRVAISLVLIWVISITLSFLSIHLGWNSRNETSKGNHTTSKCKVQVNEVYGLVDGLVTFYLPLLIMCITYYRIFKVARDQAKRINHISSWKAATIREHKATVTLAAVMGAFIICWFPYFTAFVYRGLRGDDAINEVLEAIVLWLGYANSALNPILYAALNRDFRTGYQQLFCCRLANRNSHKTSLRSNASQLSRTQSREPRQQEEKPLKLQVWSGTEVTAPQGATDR
# Excerpt: as §1
# HTR1A = target: T8, HTR1A (Homo sapiens, UniProt P08908); assay: SAFETYScan GPCR cAMP, Antagonist; assay type: cell-based
# T8 construct: expressed in transfected cells
# T8 sequence (P08908 1-422): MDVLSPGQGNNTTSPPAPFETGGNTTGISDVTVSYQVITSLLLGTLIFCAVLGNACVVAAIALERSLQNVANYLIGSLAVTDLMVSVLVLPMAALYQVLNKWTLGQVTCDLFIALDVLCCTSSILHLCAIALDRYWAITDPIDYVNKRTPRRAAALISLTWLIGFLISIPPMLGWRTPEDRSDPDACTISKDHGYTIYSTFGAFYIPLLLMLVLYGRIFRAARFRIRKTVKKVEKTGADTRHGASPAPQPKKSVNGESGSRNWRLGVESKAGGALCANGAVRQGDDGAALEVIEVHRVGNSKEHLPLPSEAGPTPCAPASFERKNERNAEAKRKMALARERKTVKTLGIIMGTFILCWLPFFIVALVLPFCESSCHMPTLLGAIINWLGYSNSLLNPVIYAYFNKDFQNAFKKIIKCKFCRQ
# Excerpt: as §1
# HTR1B = target: T9, HTR1B (Homo sapiens, UniProt P28222); assay: SAFETYScan GPCR cAMP, Antagonist; assay type: cell-based
# T9 construct: expressed in transfected cells
# Excerpt: as §1
# OPRD1 = OPRD1 (Homo sapiens, UniProt P41143); assay: SAFETYScan GPCR cAMP, Antagonist; assay type: cell-based
# OPRD1, sequence (P41143 whole entry, species assumed): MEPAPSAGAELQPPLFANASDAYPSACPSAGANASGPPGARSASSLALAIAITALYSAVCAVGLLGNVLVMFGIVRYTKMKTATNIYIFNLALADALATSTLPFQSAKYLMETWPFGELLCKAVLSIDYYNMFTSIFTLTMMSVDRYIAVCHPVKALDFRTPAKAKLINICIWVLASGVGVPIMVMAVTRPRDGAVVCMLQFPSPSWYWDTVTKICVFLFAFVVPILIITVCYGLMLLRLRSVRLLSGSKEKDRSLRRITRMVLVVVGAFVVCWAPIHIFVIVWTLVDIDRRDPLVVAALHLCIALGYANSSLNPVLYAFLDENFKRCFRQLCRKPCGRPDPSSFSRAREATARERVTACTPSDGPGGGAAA
# Excerpt: as §1
# OPRK1 = OPRK1 (Homo sapiens, UniProt P41145); assay: SAFETYScan GPCR cAMP, Antagonist; assay type: cell-based
# OPRK1, sequence (P41145 whole entry, species assumed): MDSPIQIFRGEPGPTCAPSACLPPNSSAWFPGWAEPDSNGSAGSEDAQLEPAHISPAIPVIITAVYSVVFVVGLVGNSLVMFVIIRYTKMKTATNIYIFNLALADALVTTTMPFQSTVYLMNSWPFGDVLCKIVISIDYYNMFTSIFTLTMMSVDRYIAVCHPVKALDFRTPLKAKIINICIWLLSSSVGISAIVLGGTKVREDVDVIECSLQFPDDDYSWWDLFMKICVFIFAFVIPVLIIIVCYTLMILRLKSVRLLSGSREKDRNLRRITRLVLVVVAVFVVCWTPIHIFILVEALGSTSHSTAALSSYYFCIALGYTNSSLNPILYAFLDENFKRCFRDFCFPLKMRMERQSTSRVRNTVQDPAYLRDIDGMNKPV
# Excerpt: as §1
# OPRM1 = OPRM1 (Homo sapiens, UniProt P35372); assay: SAFETYScan GPCR cAMP, Antagonist; assay type: cell-based
# OPRM1, sequence (P35372 whole entry, species assumed): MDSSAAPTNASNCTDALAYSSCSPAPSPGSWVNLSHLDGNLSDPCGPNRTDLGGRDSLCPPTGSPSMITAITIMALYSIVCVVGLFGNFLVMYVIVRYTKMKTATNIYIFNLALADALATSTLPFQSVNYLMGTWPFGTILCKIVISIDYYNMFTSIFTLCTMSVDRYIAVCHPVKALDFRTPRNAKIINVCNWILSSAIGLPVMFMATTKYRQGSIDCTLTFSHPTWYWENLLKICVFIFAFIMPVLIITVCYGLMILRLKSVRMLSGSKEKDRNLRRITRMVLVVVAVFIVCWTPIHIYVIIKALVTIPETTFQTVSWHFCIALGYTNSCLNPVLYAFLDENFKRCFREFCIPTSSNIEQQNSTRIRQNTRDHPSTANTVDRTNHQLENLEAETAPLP
# Excerpt: as §1
# AChE = AChE (Homo sapiens, UniProt P22303); assay: SAFETYScan Non-Kinase Enzymes Enzymatic, Inhibitor; assay type: biochemical
# Excerpt: as §1
# COX1 = COX1 (Homo sapiens, UniProt P23219); assay: SAFETYScan Non-Kinase Enzymes Enzymatic, Inhibitor; assay type: biochemical
# Excerpt: as §1
# COX2 = COX2 (Homo sapiens, UniProt P35354); assay: SAFETYScan Non-Kinase Enzymes Enzymatic, Inhibitor; assay type: biochemical
# Excerpt: as §1
# MAOA = MAOA (Homo sapiens, UniProt P21397); assay: SAFETYScan Non-Kinase Enzymes Enzymatic, Inhibitor; assay type: biochemical
# MAOA, sequence (P21397 whole entry): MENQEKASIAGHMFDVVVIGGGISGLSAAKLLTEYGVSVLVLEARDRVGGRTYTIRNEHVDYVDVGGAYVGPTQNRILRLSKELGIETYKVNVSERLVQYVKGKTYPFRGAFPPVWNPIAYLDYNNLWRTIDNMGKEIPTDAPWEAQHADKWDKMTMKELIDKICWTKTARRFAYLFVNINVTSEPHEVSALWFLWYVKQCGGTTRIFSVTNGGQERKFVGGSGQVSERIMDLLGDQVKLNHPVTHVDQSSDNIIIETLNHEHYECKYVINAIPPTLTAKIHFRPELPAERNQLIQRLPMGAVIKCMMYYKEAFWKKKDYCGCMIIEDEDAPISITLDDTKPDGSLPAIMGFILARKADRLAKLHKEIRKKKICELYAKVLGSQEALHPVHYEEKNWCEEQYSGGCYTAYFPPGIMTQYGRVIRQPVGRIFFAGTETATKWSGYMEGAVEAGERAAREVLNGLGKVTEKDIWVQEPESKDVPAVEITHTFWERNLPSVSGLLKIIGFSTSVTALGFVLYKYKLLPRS
# Excerpt: as §1
# PDE3A = PDE3A (Homo sapiens, UniProt Q14432); assay: SAFETYScan Non-Kinase Enzymes Enzymatic, Inhibitor; assay type: biochemical
# PDE3A, sequence (Q14432 whole entry): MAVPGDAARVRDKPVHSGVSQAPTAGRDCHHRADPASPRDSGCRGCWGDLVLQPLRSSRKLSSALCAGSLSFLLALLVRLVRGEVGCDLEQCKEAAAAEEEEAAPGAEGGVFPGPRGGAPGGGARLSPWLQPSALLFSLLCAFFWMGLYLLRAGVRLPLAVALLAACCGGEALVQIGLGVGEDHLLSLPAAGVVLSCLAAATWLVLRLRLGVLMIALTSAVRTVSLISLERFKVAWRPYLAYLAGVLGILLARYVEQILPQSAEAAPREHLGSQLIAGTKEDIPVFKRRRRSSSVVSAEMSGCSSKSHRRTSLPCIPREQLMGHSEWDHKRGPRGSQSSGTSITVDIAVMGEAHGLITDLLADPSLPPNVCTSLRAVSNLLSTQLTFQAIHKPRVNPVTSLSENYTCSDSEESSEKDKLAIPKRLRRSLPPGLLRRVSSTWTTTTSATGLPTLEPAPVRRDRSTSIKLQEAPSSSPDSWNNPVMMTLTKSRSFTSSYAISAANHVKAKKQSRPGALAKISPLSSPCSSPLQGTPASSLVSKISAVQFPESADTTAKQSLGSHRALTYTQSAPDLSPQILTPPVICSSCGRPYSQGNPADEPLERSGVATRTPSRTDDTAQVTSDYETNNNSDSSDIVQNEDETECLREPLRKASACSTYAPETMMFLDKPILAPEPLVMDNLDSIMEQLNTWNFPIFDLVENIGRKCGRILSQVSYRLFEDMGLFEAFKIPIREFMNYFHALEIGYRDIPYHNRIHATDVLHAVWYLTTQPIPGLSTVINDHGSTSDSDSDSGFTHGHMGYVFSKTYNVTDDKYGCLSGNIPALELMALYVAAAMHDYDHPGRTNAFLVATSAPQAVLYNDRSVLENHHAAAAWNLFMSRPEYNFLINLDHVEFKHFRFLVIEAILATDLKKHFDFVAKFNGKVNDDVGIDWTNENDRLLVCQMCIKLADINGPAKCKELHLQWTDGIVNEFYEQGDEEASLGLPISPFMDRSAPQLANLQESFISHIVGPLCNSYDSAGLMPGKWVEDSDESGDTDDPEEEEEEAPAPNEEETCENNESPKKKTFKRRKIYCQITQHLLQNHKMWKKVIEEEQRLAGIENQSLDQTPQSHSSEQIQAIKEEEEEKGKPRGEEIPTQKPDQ
# Excerpt: as §1
# PDE4D2 = PDE4D2 (Homo sapiens, UniProt Q08499); assay: SAFETYScan Non-Kinase Enzymes Enzymatic, Inhibitor; assay type: biochemical
# Excerpt: as §1
# DAT = DAT (Homo sapiens, UniProt Q01959); assay: SAFETYScan Transporter, Blocker; assay type: cell-based
# DAT, sequence (Q01959 whole entry): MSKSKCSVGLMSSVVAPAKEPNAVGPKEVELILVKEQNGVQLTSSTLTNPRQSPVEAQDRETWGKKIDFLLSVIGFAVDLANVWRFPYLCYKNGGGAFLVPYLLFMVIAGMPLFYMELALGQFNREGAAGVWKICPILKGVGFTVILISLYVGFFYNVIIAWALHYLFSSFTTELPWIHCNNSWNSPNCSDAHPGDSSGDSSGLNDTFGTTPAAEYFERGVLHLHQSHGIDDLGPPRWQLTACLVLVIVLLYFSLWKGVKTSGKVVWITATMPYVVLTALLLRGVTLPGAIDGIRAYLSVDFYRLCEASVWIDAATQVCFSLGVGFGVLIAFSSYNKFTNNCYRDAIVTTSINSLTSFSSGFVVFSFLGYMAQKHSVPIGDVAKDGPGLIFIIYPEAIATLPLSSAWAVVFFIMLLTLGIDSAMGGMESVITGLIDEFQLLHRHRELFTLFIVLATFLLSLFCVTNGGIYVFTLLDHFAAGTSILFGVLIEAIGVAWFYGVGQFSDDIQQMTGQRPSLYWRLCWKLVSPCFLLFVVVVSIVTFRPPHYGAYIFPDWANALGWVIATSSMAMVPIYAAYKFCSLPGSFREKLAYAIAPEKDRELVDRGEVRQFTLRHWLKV
# Excerpt: as §1
# NET = NET (Homo sapiens, UniProt P23975); assay: SAFETYScan Transporter, Blocker; assay type: cell-based
# NET, sequence (P23975 whole entry): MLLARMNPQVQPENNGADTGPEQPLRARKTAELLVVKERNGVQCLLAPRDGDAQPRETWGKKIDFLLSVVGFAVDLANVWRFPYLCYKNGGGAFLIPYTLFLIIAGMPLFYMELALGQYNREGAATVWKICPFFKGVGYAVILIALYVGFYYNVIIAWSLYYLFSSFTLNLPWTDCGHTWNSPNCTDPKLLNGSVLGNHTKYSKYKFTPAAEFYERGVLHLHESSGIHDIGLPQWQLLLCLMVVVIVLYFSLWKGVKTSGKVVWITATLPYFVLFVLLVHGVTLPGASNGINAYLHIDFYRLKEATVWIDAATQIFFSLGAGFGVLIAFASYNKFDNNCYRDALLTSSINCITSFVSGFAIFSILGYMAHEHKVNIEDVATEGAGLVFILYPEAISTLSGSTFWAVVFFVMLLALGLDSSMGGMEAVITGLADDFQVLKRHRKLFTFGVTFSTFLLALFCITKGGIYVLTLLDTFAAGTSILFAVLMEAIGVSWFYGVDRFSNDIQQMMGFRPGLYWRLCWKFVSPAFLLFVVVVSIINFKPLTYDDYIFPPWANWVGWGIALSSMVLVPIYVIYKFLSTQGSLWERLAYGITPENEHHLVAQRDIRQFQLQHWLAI
# Excerpt: as §1
# SERT = SERT (Homo sapiens, UniProt P31645); assay: SAFETYScan Transporter, Blocker; assay type: cell-based
# Excerpt: as §1
compound,measurement,setting,value
"C[C@H]1C[C@@H](O)CN(c2ncc(Cl)c(Nc3ccc4c(c3)c3c(c(=O)n4C)OCC(F)(F)[C@H](C4CC4)N3)n2)C1 [12a CCT373566, (S)-10-((5-Chloro-2-((3R,5S)-3-hydroxy-5-methylpiperidin-1-yl)pyrimidin-4-yl)amino)-2-cyclopropyl-3,3-difluoro-7-methyl-1,2,3,4-tetrahydro-[1,4]oxazepino[2,3-c]quinolin-6(7H)-one]",chromatographic logD,[1],3
same,PAMPA (pH 7.4),in vitro,24 ×10–6 cm s–1
same,Emax,ADRA2A; read-out: Max Response,0%
same,IC50,ADRA2A; read-out: RC50 (IC50),> 10 µM
same,Emax,ADRB1; read-out: Max Response,57.3%
same,IC50,ADRB1; read-out: RC50 (IC50),> 10 µM
same,Emax,CNR1; read-out: Max Response,1.95%
same,IC50,CNR1; read-out: RC50 (IC50),> 10 µM
same,Emax,CNR2; read-out: Max Response,10.7%
same,IC50,CNR2; read-out: RC50 (IC50),> 10 µM
same,Emax,DRD1; read-out: Max Response,51.9%
same,IC50,DRD1; read-out: RC50 (IC50),4.89 µM
same,Emax,DRD2S; read-out: Max Response,28.7%
same,IC50,DRD2S; read-out: RC50 (IC50),> 10 µM
same,Emax,HRH2; read-out: Max Response,46.3%
same,IC50,HRH2; read-out: RC50 (IC50),> 10 µM
same,Emax,HTR1A; read-out: Max Response,13.8%
same,IC50,HTR1A; read-out: RC50 (IC50),> 10 µM
same,Emax,HTR1B; read-out: Max Response,5.08%
same,IC50,HTR1B; read-out: RC50 (IC50),> 10 µM
same,Emax,OPRD1; read-out: Max Response,0%
same,IC50,OPRD1; read-out: RC50 (IC50),> 10 µM
same,Emax,OPRK1; read-out: Max Response,1.28%
same,IC50,OPRK1; read-out: RC50 (IC50),> 10 µM
same,Emax,OPRM1; read-out: Max Response,9.16%
same,IC50,OPRM1; read-out: RC50 (IC50),> 10 µM
same,Emax,AChE; read-out: Max Response,3.36%
same,IC50,AChE; read-out: RC50 (IC50),> 10 µM
same,Emax,COX1; read-out: Max Response,33%
same,IC50,COX1; read-out: RC50 (IC50),> 10 µM
same,Emax,COX2; read-out: Max Response,0%
same,IC50,COX2; read-out: RC50 (IC50),> 10 µM
same,Emax,MAOA; read-out: Max Response,0%
same,IC50,MAOA; read-out: RC50 (IC50),> 10 µM
same,Emax,PDE3A; read-out: Max Response,0.2%
same,IC50,PDE3A; read-out: RC50 (IC50),> 10 µM
same,Emax,PDE4D2; read-out: Max Response,10.8%
same,IC50,PDE4D2; read-out: RC50 (IC50),> 10 µM
same,Emax,DAT; read-out: Max Response,0%
same,IC50,DAT; read-out: RC50 (IC50),> 10 µM
same,Emax,NET; read-out: Max Response,8.36%
same,IC50,NET; read-out: RC50 (IC50),> 10 µM
same,Emax,SERT; read-out: Max Response,0%
same,IC50,SERT; read-out: RC50 (IC50),> 10 µM
